Source: patent EP0204284A2, “A novel lipase” (SAPPORO BREWERIES LIMITED, priority 1985, dated 1986)
“Also recorded” adds a separate entry of the source. Where two headings read alike, the source gives them in different places.

Columns and labels:
lipase [1] = assay type: biochemical, Pseudomonas fragi 22.39B; conditions: for Effect of metal ions on the enzyme (in words): summary statement
Description: Thus, the chemical and physical properties, by which the inventive novel lipase is characterized, are as described below. The activity of the enzyme has been determined by the PVA emulsion method proposed by Yamada, et al. and described in Journal of the Agricultural Chemical Society of Japan, volume 36, page 860 (1962) with some modifications if not mentioned otherwise, taking an amount of the enzyme liberating a micro- equivalent of a fatty acid for 1 minute as one unit (U) (see Japanese Patent Publication 56-28517).
The influence of metal ions on the enzymatic actvity was examined by keeping a 9:1 by volume mixture of a 5U/ml solution of the enzyme and a 10 mM solution of the metal ions at 25°C for 30 minutes followed by the determination of the residual activity of the enzyme in the solution. No calcium chloride was contained in the reaction mixture.

lipase [2] = experiment: Substrate specificity: relative rate of decomposition of esters, oils and fats (shaking method); assay type: biochemical, Pseudomonas fragi 22.39B; conditions: for Relative rate of decomposition, %: ester as the substrate, triolein as the reference (100), shaking method, pH 9.0, 37°C, 30 minutes; for Activity of the enzyme for the decomposition of the substrate (in words): summary statement
Text: The enzyme is active for the decomposition of the substrate, such as various kinds of esters and naturally occurring oils and fats. Tables 1-1 and 1-2 given below give the relative rate of decomposition of esters (Table 1-1) and naturally occurring oils and fats (Table 1-2) in % taking triolein and olive oil, respectively, as the reference.
Different from the above mentioned standard procedure of the PVA emulsion method, the results tabulated in Tables 1-1 and 1-2 were obtained by the shaking method according to the conditions and procedures described below.
The solution described above was taken in an Erlenmeyer flask of 100 ml capacity and shaken for 30 minutes in a thermostat at 37°C at a rate of 90 rpm along an 8-shaped line. After completion of the above mentioned reaction time, 20 ml of a 1:1 mixture of acetone and ethyl alcohol were added to the flask and the resultant solution was titrated within a length of time with a 0.05N aqueous solution of sodium hydroxide using phenol phthalein as the indicator.

lipase [3] = experiment: Influence of surface active agents on the enzymatic activity (residual activity); assay type: biochemical, Pseudomonas fragi 22.39B; conditions: for Residual activity, %: 9:1 by volume mixture of 10 U/ml enzyme solution and 4% aqueous solution of surface active agent, 25°C, 30 minutes; for Effect of surface active agents on the enzyme (in words): summary statement
Description: Thus, the chemical and physical properties, by which the inventive novel lipase is characterized, are as described below.
Similarly, the influence of surface active agents on the enzymatic activity was examined by keeping a 9:1 by volume mixture of a 10 U/ml solution of the enzyme and a 4% aqueous solution of the surface active agent at 25°C for 30 minutes followed by the determination of the residual activity of the enzyme in the solution.

lipase [4] = conditions: Biochim. Biophys. Acta 488, 353-358 (1977); cited from earlier work
lipase [5] = conditions: J. Ferment. Technol. 49, 128 (1971); Japanese Patent Publication 50-25553; cited from earlier work
lipase [6] = molecular target: T1, lipase (Pseudomonas fragi, UniProt P08658); conditions: J. Gen. Microbiol. 48, 317-328 (1967); cited from earlier work
T1 sequence (P08658 1-293): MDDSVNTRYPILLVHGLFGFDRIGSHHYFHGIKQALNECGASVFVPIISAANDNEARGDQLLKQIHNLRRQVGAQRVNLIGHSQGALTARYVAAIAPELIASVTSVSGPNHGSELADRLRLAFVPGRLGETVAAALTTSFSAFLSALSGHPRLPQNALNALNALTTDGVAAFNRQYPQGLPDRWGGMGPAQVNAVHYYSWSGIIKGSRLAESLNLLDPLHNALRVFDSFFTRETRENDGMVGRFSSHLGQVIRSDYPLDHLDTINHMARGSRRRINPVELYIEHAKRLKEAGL

lipase [7] = conditions: J. Ferment. Technol. 49, 128 (1971); Japanese Patent Publication 50-25553; cited from earlier work; remark: listed apart in the source
lipase [8] = molecular target: lipase (Pseudomonas aeruginosa, UniProt P26876); conditions: Biochim. Biophys. Acta 206, 380-391 (1970); cited from earlier work
lipase (Pseudomonas aeruginosa, UniProt P26876), sequence (P26876 27-311): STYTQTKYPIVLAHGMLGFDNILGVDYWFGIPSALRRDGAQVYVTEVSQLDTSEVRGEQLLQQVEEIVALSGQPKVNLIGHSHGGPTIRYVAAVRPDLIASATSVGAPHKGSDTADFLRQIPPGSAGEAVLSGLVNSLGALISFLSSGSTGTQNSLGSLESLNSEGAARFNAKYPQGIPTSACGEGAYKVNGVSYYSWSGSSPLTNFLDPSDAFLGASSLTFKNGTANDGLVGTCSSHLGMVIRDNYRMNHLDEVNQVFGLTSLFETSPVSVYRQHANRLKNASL

lipase [9] = conditions: Biochim. Biophys. Acta 488, 353-358 (1977); cited from earlier work; remark: listed apart in the source
[10] = 9:1 by volume mixture of 5U/ml enzyme solution and 10 mM metal ion solution, 25°C, 30 minutes, no calcium chloride

[Cl][Ag] [AgCl]
Residual activity, % (lipase [1]; [10]): 93.6%

[Cl][Al]([Cl])[Cl] [AlCl3]
Residual activity, % (lipase [1]; [10]): 93.6%

[Ba+2].[Cl-].[Cl-] [BaCl2]
Residual activity, % (lipase [1]; [10]): 92.7%

CCCCCCCC/C=C\CCCCCCCC(=O)OCCCC [Butyl oleate]
Relative rate of decomposition, % (lipase [2]): 95% | Activity of the enzyme for the decomposition of the substrate (in words) (lipase [2]): Active; also recorded: good activity

[Ca+2].[Cl-].[Cl-] [CaCl2]
Residual activity, % (lipase [1]; [10]): 105.5%

CCCCCCCCCCCCCCCC[N+](C)(C)C.[Br-] [Cetyl trimethyl ammonium bromide]
Residual activity, % (lipase [3]): 12% | Effect of surface active agents on the enzyme (in words) (lipase [3]): deactivated

[Cl-].[Cl-].[Co+2] [CoCl2]
Residual activity, % (lipase [1]; [10]): 86.6%

[Cl][Cu][Cl] [CuCl2]
Residual activity, % (lipase [1]; [10]): 90.8%

CCCCCCCCCCCC[N+](C)(C)C.[Cl-] [Dodecyl trimethyl ammonium chloride]
Residual activity, % (lipase [3]): 35%

CCCCCCCC/C=C\CCCCCCCC(=O)OCC [Ethyl oleate]
Relative rate of decomposition, % (lipase [2]): 59%

[Cl][Fe][Cl] [FeCl2, iron (II) chloride]
Residual activity, % (lipase [1]; [10]): 36.7% | Effect of metal ions on the enzyme (in words) (lipase [1]): Deactivated

[Cl][Fe]([Cl])[Cl] [FeCl3, iron (III) chloride]
Activation and deactivation (in words) (lipase [4]): Almost no deactivation | Activation and deactivation (in words) (lipase [5]): Inhibited | Residual activity, % (lipase [1]; [10]): 33.0% | Effect of metal ions on the enzyme (in words) (lipase [1]): Deactivated

[Cl][Hg][Cl] [HgCl2, mercury (II) chloride]
Activation and deactivation (in words) (lipase [4]): Almost no deactivation | Activation and deactivation (in words) (lipase [5]): Inhibited | Residual activity, % (lipase [1]; [10]): 83.5%

CCCC(=O)OC [Methyl butyrate]
Relative rate of decomposition, % (lipase [2]): 23% | Substrate specificity (in words) (lipase [6]): inactive | Substrate specificity (in words) (lipase [7]): little active

CCCCCCCC/C=C\CCCCCCCC(=O)OC [Methyl oleate]
Relative rate of decomposition, % (lipase [2]): 87% | Activity of the enzyme for the decomposition of the substrate (in words) (lipase [2]; listed as methyl - oleate): good activity | Activity of the enzyme for the decomposition of the substrate (in words) (lipase [2]; listed as methyl oleate): Active | Substrate specificity (in words) (lipase [6]): inactive

[Cl-].[Cl-].[Mg+2] [MgCl2]
Residual activity, % (lipase [1]; [10]): 97.2%

[Cl][Mn][Cl] [MnCl2]
Residual activity, % (lipase [1]; [10]): 81.7%

[Cl][Ni][Cl] [NiCl2]
Residual activity, % (lipase [1]; [10]): 98.9%

[Cl][Pb][Cl] [PbCl2]
Residual activity, % (lipase [1]; [10]): 78.0%

CCCCCCCC/C=C\CCCCCCCC(=O)OCCOCC(OCCO)C1OCC(OCCO)C1OCCO (stereo not drawn) [Polyoxyethylene sorbitan monooleate]
Relative rate of decomposition, % (lipase [2]): 50% | Residual activity, % (lipase [3]): 115%

[Cl][Sn][Cl] [SnCl2]
Residual activity, % (lipase [1]; [10]): 79.8%

[Cl-].[Cl-].[Sr+2] [SrCl2]
Residual activity, % (lipase [1]; [10]): 92.7%

CC(=O)OCC(COC(C)=O)OC(C)=O [Triacetin]
Relative rate of decomposition, % (lipase [2]): 108% | Activity of the enzyme for the decomposition of the substrate (in words) (lipase [2]): highly active

CCCC(=O)OCC(COC(=O)CCC)OC(=O)CCC [Tributyrin]
Relative rate of decomposition, % (lipase [2]): 243% | Activity of the enzyme for the decomposition of the substrate (in words) (lipase [2]): highly active | Substrate specificity (in words) (lipase [6]): Active | Substrate specificity (in words) (lipase [8]): Active | Substrate specificity (in words) (lipase [7]): Active

[Cl-].[Cl-].[Zn+2] [ZnCl2, zinc chloride]
Residual activity, % (lipase [1]; [10]): 34.9% | Effect of metal ions on the enzyme (in words) (lipase [1]): Deactivated | Effect of metal ions on the enzyme (in words) (lipase [1]; listed as Zn^2+): deactivated; also recorded: deactivating effect

CCCCCCCCCCCC[N+](C)(C)C.[Br-] [n-Dodecyl trimethyl ammonium bromide]
Residual activity, % (lipase [3]): 46%

CCCCCCCCCCCCCCCC(=O)OCC(COC(=O)CCCCCCCCCCCCCCC)OC(=O)CCCCCCCCCCCCCCC [tri- palmitin]
Substrate specificity (in words) (lipase [9]): Active

CCCCCC(=O)OCC(COC(=O)CCCCC)OC(=O)CCCCC [tricaproin]
Substrate specificity (in words) (lipase [9]): Active

CCCCCCCCCCCCCC(=O)OCC(COC(=O)CCCCCCCCCCCCC)OC(=O)CCCCCCCCCCCCC [trimyristin]
Substrate specificity (in words) (lipase [7]): Active

KCl
Residual activity, % (lipase [1]; [10]): 98.0%

LiCl
Residual activity, % (lipase [1]; [10]): 97.5%

NaCl
Residual activity, % (lipase [1]; 1000 µM): 98.0%

Polyoxyethylene (10) octyl phenyl ether
Residual activity, % (lipase [3]): 105% | Effect of surface active agents on the enzyme (in words) (lipase [3]): somewhat increased

Polyoxyethylene (10) oleyl ether
Residual activity, % (lipase [3]): 55%

Sorbitan monolaurate [Sorbitan monolaurate (Span 20)]
Relative rate of decomposition, % (lipase [2]): 66%

Sorbitan monooleate [Sorbitan monooleate (Span 80)]
Relative rate of decomposition, % (lipase [2]): 36% | Residual activity, % (lipase [3]): 56%

copper sulfate
Activation and deactivation (in words) (lipase [5]): Inhibited
